Results as given in patent publication US20090317360A1, “ANTI-VIRAL INHIBITORS AND METHODS OF USE” (Genelabs Technologies, Inc., priority 2007, published 2009).

Assay: Replicon assay (luciferase readout, ET cell line)
Type: cell-based
Settings: Hepatitis C virus; 10 μM compound; ET (Huh-lucubineo-ET) cells; luciferase activity measured 48-72 hours after addition; relative to no compound control; read-out: % Inhib. at 10 μM (percent inhibition of replication)
Method: A cell line, ET (Huh-lucubineo-ET) is used for screening of compounds for inhibiting HCV RNA dependent RNA polymerase. The ET cell line is stably transfected with RNA transcripts harboring a I389luc-ubi-neo/NS3-3′/ET; replicon with firefly luciferase-ubiquitin-neomycin phosphotransferase fusion protein and EMCV-IRES driven NS3-5B polyprotein containing the cell culture adaptive mutations (E1202G; T12801; K1846T) (Krieger at al, 2001 and unpublished). The ET cells are grown in DMEM (Dulbeco's Modified Eagle's Medium), supplemented with 10% fetal calf serum, 2 mM Glutamine, Penicillin (100 IU/mL)/Streptomycin (100 μg/mL), 1× nonessential amino acids, and 250 μg/mL G418 (“Geneticin”). They are all available through Life Technologies (Bethesda, Md.). The cells are plated at 0.5-1.0×10^4 cells/well in the 96 well plates and incubated for 24 hrs before adding test compound. The compounds are added to the cells to achieve a final concentration of 0.1 nM to 50 μm and a final DMSO (dimethylsulfoxide) concentration of 0.5%. Luciferase activity is measured 48-72 hours later by adding a lysis buffer and the substrate (Catalog number Glo-lysis buffer E2661 and Bright-Glo luciferase system E2620 Promega, Madison, Wis.). Cells should not be too confluent during the assay. Percent inhibition of replication data is plotted relative to no compound control. Under the same condition, cytotoxicity of the compounds are determined using cell proliferation reagent, WST-1(Roche, Germany). The compounds showing antiviral activities, but no significant cytotoxicities are chosen to determine IC50 and TC50. For these determinations, a 10 point, 2-fold serial dilution for each compound was used, which spans a concentration range of 1000 fold. IC50 and TC50 values were calculated by fitting % inhibition at each concentration to the following equation:
% inhibition=100%/[(IC50/[I])^b+1]
where b is Hill's coefficient. […]

SMILES | inhibition at 10 µM [%]
O=C(Nc1ccc(N2CCOCC2)cc1)c1cccc(-c2csc(NC(=O)c3ccc(CN4CCS(=O)(=O)CC4)cc3)n2)c1 [Compound 104, 3-{2-[4-(1,1-Dioxo-thiomorpholin-4-ylmethyl)-benzoylamino]-thiazol-4-yl}-N-(4-morpholin-4-yl-phenyl)-benzamide] | 95.8
CCCS(=O)(=O)N1CCN(Cc2ccc(NC(=O)c3cccc(-c4csc(C(=O)Nc5ccc(N6CCOCC6)cc5)n4)c3)cc2)CC1 [Compound 116, 4-(3-{4-[4-(Propane-1-sulfonyl)-piperazin-1-ylmethyl]-phenylcarbamoyl}-phenyl)-thiazole-2-carboxylic acid (4-morpholin-4-yl-phenyl)-amide] | 99.5
O=C(Nc1nc(-c2ccc(C(=O)NC3CC3)cc2)cs1)c1ccc(CN2CCS(=O)(=O)CC2)cc1 [Compound 102, 4-{2-[4-(1,1-Dioxo-thiomorpholin-4-ylmethyl)-benzoylamino]-thiazol-4-yl}-N-cyclopropyl-benzamide] | 47.4
CCCS(=O)(=O)N1CCN(Cc2ccc(NC(=O)c3cccc(-c4csc(C(=O)Nc5ccc(CN6CCN(S(=O)(=O)CCC)CC6)cc5)n4)c3)cc2)CC1 [Compound 115, 4-(3-{4-[4-(Propane-1-sulfonyl)-piperazin-1-ylmethyl]-phenylcarbamoyl}-phenyl)-thiazole-2-carboxylic acid {4-[4-(propane-1-sulfonyl)-piperazin-1-ylmethyl]-phenyl}-amide] | 100
O=C(Nc1ccc(N2CCOCC2)cc1)c1cccc(-c2csc(C(=O)Nc3ccc(N4CCOCC4)cc3)n2)c1 [Compound 112, 4-[3-(4-Morpholin-4-yl-phenylcarbamoyl)-phenyl]-thiazole-2-carboxylic acid (4-morpholin-4-yl-phenyl)-amide] | 98.5
O=C(Nc1ccc(N2CCOCC2)cc1)c1cccc(-c2csc(C(=O)Nc3ccc(CN4CCS(=O)(=O)CC4)cc3)n2)c1 [Compound 107, 4-[3-(4-Morpholin-4-yl-phenylcarbamoyl)-phenyl]-thiazole-2-carboxylic acid [4-(1,1-dioxo-thiomorpholin-4-ylmethyl)-phenyl]-amide] | 36.5
CCCS(=O)(=O)N1CCN(Cc2ccc(NC(=O)c3ccc(-c4csc(C(=O)Nc5ccc(CN6CCN(S(=O)(=O)CCC)CC6)cc5)n4)cc3)cc2)CC1 [Compound 114, 4-(4-{4-[4-(Propane-1-sulfonyl)-piperazin-1-ylmethyl]-phenylcarbamoyl}-phenyl)-thiazole-2-carboxylic acid {4-[4-(propane-1-sulfonyl)-piperazin-1-ylmethyl]-phenyl}-amide] | 98
O=C(Nc1ccc(N2CCOCC2)cc1)c1ccc(-c2csc(C(=O)Nc3ccc(N4CCOCC4)cc3)n2)cc1 [Compound 111, 4-[4-(4-Morpholin-4-yl-phenylcarbamoyl)-phenyl]-thiazole-2-carboxylic acid (4-morpholin-4-yl-phenyl)-amide] | 34.2
O=C(Nc1ccc(CN2CCS(=O)(=O)CC2)cc1)c1ccc(-c2csc(C(=O)Nc3ccc(CN4CCS(=O)(=O)CC4)cc3)n2)cc1 [Compound 110, 4-{4-[4-(1,1-Dioxo-thiomorpholin-4-ylmethyl)-phenylcarbamoyl]-phenyl}-thiazole-2-carboxylic acid [4-(1,1-dioxo-thiomorpholin-4-ylmethyl)-phenyl]-amide] | 99.9
O=C(Nc1ccc(CN2CCS(=O)(=O)CC2)cc1)c1cccc(-c2csc(NC(=O)c3ccc(N4CCOCC4)cc3)n2)c1 [Compound 109, 3-[2-(4-morpholin-4-yl-benzoylamino)-thiazol-4-yl]-N-[4-(1,1-dioxo-thiomorpholin-4-ylmethyl)-phenyl]-benzamide] | 99.8
O=C(Nc1ccc(CN2CCS(=O)(=O)CC2)cc1)c1cccc(-c2csc(C(=O)Nc3ccc(CN4CCS(=O)(=O)CC4)cc3)n2)c1 [Compound 113, 4-{3-[4-(1,1-Dioxo-thiomorpholin-4-ylmethyl)-phenylcarbamoyl]-phenyl}-thiazole-2-carboxylic acid [4-(1,1-dioxo-thiomorpholin-4-ylmethyl)-phenyl]-amide] | 89.5
O=C(Nc1ccc(CN2CCS(=O)(=O)CC2)cc1)c1cccc(-c2csc(C(=O)Nc3ccc(N4CCOCC4)cc3)n2)c1 [Compound 108, 4-{3-[4-(1,1-Dioxo-thiomorpholin-4-ylmethyl)-phenylcarbamoyl]-phenyl}-thiazole-2-carboxylic acid (4-morpholin-4-yl-phenyl)-amide] | 63.1
